Assay results published in patent US8633183B2 (priority 2010, dated 2014).

Target: PI3Kalpha (Homo sapiens (Human), UniProt P42336)
Conditions: read-out: IC50 PI3K

PI3Kalpha, sequence (P42336 whole entry, looked up): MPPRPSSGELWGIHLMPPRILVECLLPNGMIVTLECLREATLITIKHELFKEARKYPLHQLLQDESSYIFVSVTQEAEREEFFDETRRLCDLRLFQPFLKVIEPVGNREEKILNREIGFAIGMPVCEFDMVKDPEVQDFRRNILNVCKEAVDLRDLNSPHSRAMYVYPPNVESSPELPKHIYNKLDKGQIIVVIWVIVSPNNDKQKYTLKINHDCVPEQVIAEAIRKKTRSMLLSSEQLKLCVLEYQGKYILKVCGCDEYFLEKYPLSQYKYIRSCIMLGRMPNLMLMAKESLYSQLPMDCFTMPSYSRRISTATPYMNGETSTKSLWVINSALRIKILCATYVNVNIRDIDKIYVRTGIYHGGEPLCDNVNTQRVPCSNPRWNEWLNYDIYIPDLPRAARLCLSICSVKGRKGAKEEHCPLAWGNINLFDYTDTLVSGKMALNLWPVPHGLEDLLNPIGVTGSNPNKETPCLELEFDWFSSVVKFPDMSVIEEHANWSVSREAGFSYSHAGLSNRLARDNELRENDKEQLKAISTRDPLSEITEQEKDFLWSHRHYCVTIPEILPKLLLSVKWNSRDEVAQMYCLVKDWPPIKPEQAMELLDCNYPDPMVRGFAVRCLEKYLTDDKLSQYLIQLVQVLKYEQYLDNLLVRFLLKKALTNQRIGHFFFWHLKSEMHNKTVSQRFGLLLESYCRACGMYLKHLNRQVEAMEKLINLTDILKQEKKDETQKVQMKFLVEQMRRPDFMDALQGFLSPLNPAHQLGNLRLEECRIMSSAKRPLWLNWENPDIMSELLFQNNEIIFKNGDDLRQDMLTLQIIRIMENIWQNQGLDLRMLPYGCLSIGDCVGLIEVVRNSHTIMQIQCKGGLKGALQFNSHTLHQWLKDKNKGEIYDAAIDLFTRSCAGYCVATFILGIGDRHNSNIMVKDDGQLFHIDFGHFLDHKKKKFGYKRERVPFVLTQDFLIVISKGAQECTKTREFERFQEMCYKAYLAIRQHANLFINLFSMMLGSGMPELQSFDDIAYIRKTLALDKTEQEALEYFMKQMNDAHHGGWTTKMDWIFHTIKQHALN

Row | Structure (SMILES) | IC50
1 | CCc1cc(-c2ncnc(CC)c2C#Cc2ccc(N)nc2)ccn1 [Example C-3] | 40 nM
2 | CCc1ncnc(-c2cc(C)nc(C)c2)c1C#Cc1ccc(N)nc1 [Example C-4] | 29 nM
3 | CNC(=O)c1ccc(-c2ncnc(C)c2C#Cc2ccc(N)nc2)cc1Cl [Example C-5] | 50 nM
4 | Cc1ncnc(-c2ccc(C(=O)N(C)C)cc2)c1C#Cc1ccc(N)nc1 [Example C-6] | 86 nM
5 | Cc1ncnc(-c2ccccc2)c1C#Cc1ccc(N)nc1 [Example C-7] | 39 nM
6 | Cc1ncnc(-c2ccc(F)c(C(=O)N(C)C)c2)c1C#Cc1ccc(N)nc1 [Example C-9] | 254 nM
7 | Cc1ncnc(-c2cccc(C(=O)N(C)C)c2)c1C#Cc1ccc(N)nc1 [Example C-10] | 401 nM
8 | Cc1ncnc(-c2ccc(C(=O)N(C)C)c(F)c2)c1C#Cc1ccc(N)nc1 [Example C-11] | 47 nM
9 | CCc1ncnc(-c2ccc(C(=O)NC)c(Cl)c2)c1C#Cc1ccc(N)nc1 [Example C-12] | 71 nM
10 | CCc1ncnc(-c2ccccc2)c1C#Cc1ccc(N)nc1 [Example C-13] | 99 nM
11 | CCc1ncnc(-c2ccc(S(C)(=O)=O)cc2)c1C#Cc1ccc(N)nc1 [Example C-14] | 66 nM
12 | CCc1ncnc(-c2ccc(C(=O)N(C)C)c(F)c2)c1C#Cc1ccc(N)nc1 [Example C-15A] | 57 nM
13 | CCc1ncnc(-c2ccc(F)c(C(=O)N(C)C)c2)c1C#Cc1ccc(N)nc1 [Example C-15] | 189 nM
14 | CCc1ncnc(-c2ccc(C(=O)NC)c(Cl)c2)c1C#Cc1ccc(C)nc1 [Example C-16] | 236 nM
15 | CCc1ncnc(-c2ccc(S(C)(=O)=O)cc2)c1C#Cc1ccc(C)nc1 [Example C-17] | 99 nM
16 | CCc1ncnc(-c2ccc(C(=O)N(C)C)cc2)c1C#Cc1ccc(C)nc1 [Example C-18] | 137 nM
17 | Cc1cc(-c2ncnc(C)c2C#Cc2ccc(N)nc2)ccn1 [Example C-20] | 58 nM
18 | Cc1ncnc(-c2ccc(C(F)(F)F)nc2)c1C#Cc1ccc(N)nc1 [Example C-21] | 99 nM
19 | Cc1ncnc(-c2cnc3ccccc3c2)c1C#Cc1ccc(N)nc1 [Example C-22] | 30 nM
20 | COc1ccc(-c2ncnc(C)c2C#Cc2ccc(N)nc2)cn1 [Example C-23] | 78 nM
21 | Cc1ccc(-c2ncnc(C)c2C#Cc2ccc(N)nc2)cn1 [Example C-24] | 59 nM

Row | Structure (SMILES) | IC50
22 | Cc1ncnc(-c2ccc(N3CCCCC3)nc2)c1C#Cc1ccc(N)nc1 [Example C-25] | 64 nM
23 | Cc1ncnc(-c2ccc(C3CC3)nc2)c1C#Cc1ccc(N)nc1 [Example C-26] | 43 nM
24 | CCc1ncnc(-c2ccnc(C)c2)c1C#Cc1ccc(N)nc1 [Example C-27] | 57 nM
25 | CCc1ncnc(-c2ccc(C(F)(F)F)nc2)c1C#Cc1ccc(N)nc1 [Example C-28] | 58 nM
26 | CCc1ncnc(-c2cnc3ccccc3c2)c1C#Cc1ccc(N)nc1 [Example C-29] | 24 nM
27 | CCc1ncnc(-c2ccc(OC)nc2)c1C#Cc1ccc(N)nc1 [Example C-30] | 40 nM
28 | CCc1ncnc(-c2ccc(C)nc2)c1C#Cc1ccc(N)nc1 [Example C-31] | 30 nM
29 | CCc1ncnc(-c2ccc(N3CCOCC3)nc2)c1C#Cc1ccc(N)nc1 [Example C-32] | 32 nM
30 | CCc1ncnc(-c2ccnc(OC)c2)c1C#Cc1ccc(N)nc1 [Example C-33] | 61 nM
31 | CCc1ncnc(-c2ccc(N(C)C)nc2)c1C#Cc1ccc(N)nc1 [Example C-34] | 37 nM
32 | CCN(CC)C(=O)c1cccc(-c2ncnc(C)c2C#Cc2ccc(N)nc2)c1 [Example C-36] | 308 nM
33 | Cc1ncnc(-c2cccc(C(=O)N3CCOCC3)c2)c1C#Cc1ccc(N)nc1 [Example C-37] | 224 nM
34 | Cc1ncnc(-c2cc(Cl)cc(C(=O)N(C)C)c2)c1C#Cc1ccc(N)nc1 [Example C-38] | 68 nM
35 | Cc1ncnc(-c2ccc(F)c(C(=O)N3CCOCC3)c2)c1C#Cc1ccc(N)nc1 [Example C-39] | 380 nM
36 | Cc1ncnc(-c2ccc(Cl)c(C(=O)N3CCOCC3)c2)c1C#Cc1ccc(N)nc1 [Example C-40] | 459 nM
37 | Cc1ncnc(-c2ccc(F)c(C(=O)N3CCCCC3)c2)c1C#Cc1ccc(N)nc1 [Example C-41] | 539 nM
38 | CNC(=O)c1cc(-c2ncnc(C)c2C#Cc2ccc(N)nc2)ccc1F [Example C-43] | 184 nM
39 | CCc1ncnc(-c2cccc(C(=O)N(CC)CC)c2)c1C#Cc1ccc(N)nc1 [Example C-44] | 188 nM
40 | CCc1ncnc(-c2ccc(F)c(C(=O)N3CCOCC3)c2)c1C#Cc1ccc(N)nc1 [Example C-46] | 226 nM
41 | CCc1ncnc(-c2ccc(Cl)c(C(=O)N(CC)CC)c2)c1C#Cc1ccc(N)nc1 [Example C-47] | 541 nM
42 | CCc1ncnc(-c2ccc(Cl)c(C(=O)N3CCCCC3)c2)c1C#Cc1ccc(N)nc1 [Example C-48] | 596 nM

Row | Structure (SMILES) | IC50
43 | CCc1ncnc(-c2ccc(Cl)c(C(=O)NC)c2)c1C#Cc1ccc(N)nc1 [Example C-49] | 67 nM
44 | CCc1ncnc(-c2cccc(C(=O)NC)c2)c1C#Cc1ccc(N)nc1 [Example C-50] | 72 nM
45 | CCc1ncnc(-c2ccc(C(=O)N(C)CCCOC)c(F)c2)c1C#Cc1ccc(N)nc1 [Example D-1] | 78 nM
46 | CCc1ncnc(-c2ccc(C(=O)N(C)C3CCN(C)CC3)c(F)c2)c1C#Cc1ccc(N)nc1 [Example D-3] | 574 nM
47 | CCc1ncnc(-c2ccc(C(=O)N(C)CCCO)c(F)c2)c1C#Cc1ccc(N)nc1 [Example D-4] | 58 nM
48 | CCc1ncnc(-c2ccc(C(=O)NC)c(F)c2)c1C#Cc1ccc(N)nc1 [Example D-5] | 225 nM
49 | CCc1ncnc(-c2ccc(C(=O)N(C)CCOC)c(F)c2)c1C#Cc1ccc(N)nc1 [Example D-7] | 103 nM
50 | CCc1ncnc(-c2ccc(C(=O)N3CCN(C)CC3)c(F)c2)c1C#Cc1ccc(N)nc1 [Example D-8] | 215 nM
51 | CCc1ncnc(-c2ccc(C(=O)N(C)CCCN(C)C)c(F)c2)c1C#Cc1ccc(N)nc1 [Example D-9] | 591 nM
52 | CCc1ncnc(-c2ccc(C(=O)N3CCCCC3)c(F)c2)c1C#Cc1ccc(N)nc1C [Example D-10] | 206 nM
53 | CCc1ncnc(-c2ccc(C(=O)N3CCN(CC(F)F)CC3)c(F)c2)c1C#Cc1ccc(N)nc1C [Example D-12] | 163 nM
54 | CCc1ncnc(-c2ccc(C(=O)N3CCN(C4CC4)CC3)c(F)c2)c1C#Cc1ccc(N)nc1C [Example D-13] | 312 nM
55 | CCc1ncnc(-c2ccc(C(=O)N3CCC(C(F)(F)F)CC3)c(F)c2)c1C#Cc1ccc(N)nc1C [Example D-14] | 647 nM
56 | CCc1ncnc(-c2ccc(C(=O)N3CCN(CC4CCCO4)CC3)c(F)c2)c1C#Cc1ccc(N)nc1C [Example D-16] | 192 nM
57 | CCc1ncnc(-c2ccc(C(=O)N3CCN(C4CCS(=O)(=O)C4)CC3)c(F)c2)c1C#Cc1ccc(N)nc1C [Example D-17] | 178 nM
58 | CCc1ncnc(-c2ccc(C(=O)N3CCN4CCCCC4C3)c(F)c2)c1C#Cc1ccc(N)nc1C [Example D-18] | 481 nM
59 | CCc1ncnc(-c2ccc(C(=O)N3CCN(S(=O)(=O)CC)CC3)c(F)c2)c1C#Cc1ccc(N)nc1C [Example D-19] | 92 nM
60 | CCc1ncnc(-c2ccc(C(=O)N3CCOCC3)c(F)c2)c1C#Cc1ccc(N)nc1C [Example D-20] | 116 nM
61 | CCc1ncnc(-c2ccc(C(=O)N3CCN(C)CC3)c(F)c2)c1C#Cc1ccc(N)nc1C [Example D-21] | 270 nM
62 | CCc1ncnc(-c2ccc(C(=O)N3CCN(CC4CCCCC4)CC3)c(F)c2)c1C#Cc1ccc(N)nc1C [Example D-22] | 1270 nM
63 | CCc1ncnc(-c2ccc(C(=O)N3CCN(CC(=O)N(C)C)CC3)c(F)c2)c1C#Cc1ccc(N)nc1C [Example D-23] | 123 nM

Row | Structure (SMILES) | IC50
64 | CCc1ncnc(-c2ccc(C(=O)N3CCN(Cc4ccccc4)CC3)c(F)c2)c1C#Cc1ccc(N)nc1C [Example D-24] | 1020 nM
65 | CCc1ncnc(-c2ccc(C(=O)N3CCN(c4ccccc4)CC3)c(F)c2)c1C#Cc1ccc(N)nc1C [Example D-25] | 498 nM
66 | CCc1ncnc(-c2ccc(C(=O)N3CCN(CCN(C)C)CC3)c(F)c2)c1C#Cc1ccc(N)nc1C [Example D-26] | 552 nM
67 | CCCCN1CCN(C(=O)c2ccc(-c3ncnc(CC)c3C#Cc3ccc(N)nc3)cc2Cl)CC1 [Example D-29] | 162 nM
68 | CCc1ncnc(-c2ccc(C(=O)N(C)CCCOC)c(Cl)c2)c1C#Cc1ccc(N)nc1 [Example D-30] | 68 nM
69 | CCc1ncnc(-c2ccc(C(=O)N3CCN(C4CCOCC4)CC3)c(Cl)c2)c1C#Cc1ccc(N)nc1 [Example D-31] | 97 nM
70 | CCc1ncnc(-c2ccc(C(=O)N3CCN(C4CCS(=O)(=O)C4)CC3)c(Cl)c2)c1C#Cc1ccc(N)nc1 [Example D-32] | 121 nM
71 | CCc1ncnc(-c2ccc(C(=O)NCCOC)c(Cl)c2)c1C#Cc1ccc(N)nc1 [Example D-33] | 181 nM
72 | CCc1ncnc(-c2ccc(C(=O)N(C)CCO)c(Cl)c2)c1C#Cc1ccc(N)nc1 [Example D-34] | 36 nM
73 | CCc1ncnc(-c2ccc(C(=O)N(C)CCOC)c(Cl)c2)c1C#Cc1ccc(N)nc1 [Example D-35] | 63 nM
74 | CCc1ncnc(-c2ccc(C(=O)N3CCN(CCO)CC3)c(Cl)c2)c1C#Cc1ccc(N)nc1 [Example D-36] | 84 nM
75 | CCc1ncnc(-c2ccc(C(=O)N3CCN(c4ccccn4)CC3)c(Cl)c2)c1C#Cc1ccc(N)nc1 [Example D-37] | 118 nM
76 | CCc1ncnc(-c2ccc(C(=O)N3CCN(c4ccccc4)CC3)c(Cl)c2)c1C#Cc1ccc(N)nc1 [Example D-39] | 89 nM
77 | CCc1ncnc(-c2ccc(C(=O)N3CCN(CC(F)F)CC3)c(Cl)c2)c1C#Cc1ccc(N)nc1 [Example D-41] | 177 nM
78 | CCc1ncnc(-c2ccc(C(=O)N3CCN(C(C)(C)C)CC3)c(Cl)c2)c1C#Cc1ccc(N)nc1 [Example D-43] | 436 nM
79 | CCc1ncnc(-c2ccc(C(=O)N3CCNC(=O)C3)c(Cl)c2)c1C#Cc1ccc(N)nc1 [Example D-44] | 27 nM
80 | CCc1ncnc(-c2ccc(C(=O)N3CCN(CC)CC3)c(Cl)c2)c1C#Cc1ccc(N)nc1 [Example D-45] | 186 nM
81 | CCc1ncnc(-c2ccc(C(=O)N3CCN(C(C)=O)CC3)c(Cl)c2)c1C#Cc1ccc(N)nc1 [Example D-46] | 97 nM
82 | CCc1ncnc(-c2ccc(C(=O)N3CCN(CC(F)F)CC3)c(OC)c2)c1C#Cc1ccc(N)nc1 [Example D-47] | 63 nM
